Assay results as given in patent US10787512B2, “Melatonin monoclonal antibody, detection, methods and uses thereof” (SALIMETRICS, LLC, priority 2013, dated 2020).

Columns and labels:
[1] = tested on: rabbit monoclonal antibody to Melatonin; experiment: Cross reactivity in Rapid Melatonin ELISA (competitive, melatonin-HRP); assay type: binding; details: tested at 10 to 20-fold above the highest standard (50 pg/ml); predicted value as melatonin divided by actual concentration added
Description: A microtitre plate (described below) is coated with the rabbit monoclonal antibody to Melatonin. Melatonin in standards and unknowns competes with Melatonin linked to horseradish peroxidase for the antibody binding sites. After incubation unbound components are washed away. Bound Melatonin peroxidase is measured by the reaction of the peroxidase enzyme on the substrate tetramethylbenzidine (TMB). This reaction produces a blue color. A yellow color is formed after stopping the reaction with 2-molar sulfuric acid. Optical density is read on a standard plate reader at 450 nm. The amount of Melatonin peroxidase detected is inversely proportional to the amount of Melatonin present.
Microwell plates (CoStar High Binder) were coated overnight with 0.5 ug/ml goat anti-rabbit at room temperature [100 uL/well]; Coating Buffer-NaHCO3 (2.93 g)+Na2CO3 (1.59 g) in 1000 ml Water, pH 9.6 under controlled humidity. After washing the plates 3 times in a wash buffer comprised of PBS (phosphate buffered saline) with 0.05% Tween 20, the plates were then coated with the rabbit monoclonal at 10 ng/ml in PBS with 0.01% BSA (bovine serum albumin) overnight at room temperature under controlled humidity. The plates were again washed and coated with 0.5% Stabilcoat (Surmodics) containing 0.1% normal rabbit serum. After approximately 2 hours the plates were aspirated, dried and pouched.
A primary dilution of Melatonin-HRP was made at 50 ug/ml in […]® Conjugate stabilizer (Pierce-Thermo) for storage. At the time of the assay, it is then diluted to 100 ng/ml in a phosphate or Tris Buffered Saline, pH 7.2 with 1% BSA (Diluent).
Melatonin reference material from Cerilliant was diluted in diluent to 50 pg/ml. The standard curve was prepared by making 2× serial dilutions to 0.78 pg/ml in Diluent. Pipette: 100 ul Melatonin Standards/Samples/Controls to each well of the coated microwell plate. Pipette: 50 ul conjugate to each well. Incubate: 3 hr at 2-8° C. or Room Temperature with shaking (˜500 rpm). Wash: 4×300 uL, no soak. Pipette: 100 uL tetramethylbenzidine (TMB). Incubate: Room Temp for 30 min with shaking. Pipette: 50 uL 2M H2SO4. Mix 10-15 seconds. Read Plate: OD 450-630 nm.
Chemical compounds with structural similarity to melatonin were tested at levels 10 to 20-fold higher than the highest standard (50 pg/ml) as samples. The predicted value (as melatonin) was divided by the actual concentration added to calculate % cross-reactivity.

[2] = tested on: rabbit monoclonal antibody to Melatonin; experiment: Specificity of Salimetrics Salivary Melatonin kit, cross reactants spiked into saliva; assay type: binding; details: spiked into saliva up to 2000 pg/ml; melatonin EC50 (B/Bo=0.5) divided by cross reactant EC50
Description: The Salimetrics™ Salivary Melatonin kit is a competitive immunoassay designed and validated for the quantitative measurement of salivary melatonin. The assay format and detection method are illustrated in FIG. 3, and are briefly summarized as follows: A microtitre plate is coated with rabbit monoclonal antibody to melatonin. Melatonin in standards, controls and unknowns compete with melatonin linked to horseradish peroxidase for the antibody binding sites on the microplate. After incubation, unbound components are washed away. Bound melatonin peroxidase is measured by the reaction of the horseradish peroxidase enzyme with the substrate tetramethylbenzidine (TMB). This reaction produces a blue color. A yellow color is formed after stopping the reaction with 2-molar acid solution. Optical density is read on a standard microplate reader at 450 nm-630 nm. The amount of melatonin-tagged peroxidase detected, as measured by the intensity of color, is inversely proportional to the amount of melatonin present in the sample.
Step 2: Keep the desired number of strips in the strip holder and place the remaining strips back in the foil pouch. Reseal the foil pouch with unused wells and desiccant. Store at 2-8° C. […] Step 3: Pipette 8 ml of Melatonin Assay Diluent into a disposable tube. (Scale down proportionally if not using a full plate). Set aside for Step 5. Step 4: Pipette 100 μL, of standards, controls, and unknown samples into appropriate wells. Standards, controls, and unknown samples should be assayed in duplicate. • Pipette 100 μL, of Melatonin Assay Diluent into 2 wells for the 0 Standard. Step 5: Dilute the enzyme conjugate 1:500 by adding 16 μL of the conjugate to the 8 ml of melatonin assay diluent prepared in Step 3. (Scale down proportionally if not using the entire plate.) Conjugate tube may be centrifuged for a few minutes to bring the liquid down to the tube bottom. Immediately mix the diluted conjugate solution and add 50 μL to each well using a multichannel pipette. Step 6: Place adhesive cover (provided) over plate. Mix plate constantly on a plate rotator at 500 rpm and incubate at 2-8° C. for a total of 3 hours. Step 7: Wash the plate 4 times with 1× wash buffer. A plate washer is recommended. However, washing may be done by gently squirting wash buffer into each well with a squirt bottle, or by pipetting 300 μL, of wash buffer into each well and then discarding the liquid by inverting the plate over a sink. After each wash, the plate should be thoroughly blotted on paper towels before turning upright. If using a plate washer, blotting is still recommended after the last wash. Step 8: Add 100 μL of TMB substrate solution to each well with a multichannel pipette. Step 9: Incubate the plate in the dark at room temperature for 30 minutes mixing constantly on a plate rotator at 500 rpm. Step 10: Add 50 μL of 2M stop solution with a multichannel pipette. Step 11: Mix on a plate rotator for 3 minutes at 500 rpm. Spillage may occur if mixing speed exceeds 600 rpm. If green color remains, continue mixing until green color turns to yellow. Be sure all wells have turned yellow. • Wipe off bottom of plate with a water-moistened, lint-free cloth and wipe dry. • Read in a plate reader at 450 nm with a secondary filter at 620 to 630 nm. Performance characteristics are not known without secondary or reference filter. Read the plate within 10 minutes of adding 2M stop solution. High and Low salivary Melatonin controls should be run with each assay. The control ranges established are to be used as a guide. Each laboratory should establish its own range. Variations between laboratories may be caused by differences in techniques and instrumentation.
Calculations • 1. Compute the average optical density (OD) for all duplicate wells. • 2. Calculate the percent bound (B/Bo) for each standard, control and unknown by dividing the OD of each well (B) by the average OD for the 0 (Bo). • 3. […]

[3] = Storage stability of melatonin in saliva samples; assay type: physicochemical; details: after 4 days at 2-8° C.
Description: Sample Handling and Preparation • After collection it is important to keep samples cold, to minimize bacterial growth in the specimen. Refrigerate sample within 30 minutes, and freeze at or below −20° C. within 4 hours of collection. […] On day of assay, thaw the saliva samples completely, vortex, and centrifuge at 1500×g (@3000 rpm) for 15 minutes. Centrifuging removes mucins and other particulate matter which may interfere with antibody binding, leading to falsely elevated results. Samples should be at room temperature before adding to assay plate. Pipette clear sample into appropriate wells. Re-freeze saliva samples as soon as possible after adding to the assay plate. Centrifuge/re-centrifuge saliva samples each time that they are thawed. Avoid more than 2 freeze-thaw cycles after the initial freeze/thaw.

## COc1ccc2[nH]cc(CCN)c2c1 [5-methoxy tryptamine]
[1]
  Cross Reactivity (%): <0.05%
[2]
  Cross Reactivity: <0.05%

## COc1ccc2[nH]cc(CCO)c2c1 [5-methoxy tryptophol]
[1]
  Cross Reactivity (%): 1.30%
[2]
  Cross Reactivity: 1.25%

## COc1cc2c(CCNC(C)=O)c[nH]c2cc1Cl [6-chloro melatonin]
[1]
  Cross Reactivity (%): 5.40%
[2]
  Cross Reactivity: 5.40%

## COc1cc2c(CCNC(C)=O)c[nH]c2cc1O [6-hydroxy melatonin]
[1]
  Cross Reactivity (%): <0.05%
[2]
  Cross Reactivity: <0.05%

## COc1ccc(NC=O)c(C(=O)CCNC(C)=O)c1 [AFMK, N^1-acetyl-N^2-formyl-5-methoxykynuramine]
[1]
  Cross Reactivity (%): 16.5%
[2]
  Cross Reactivity: 16.5%

## Cn1c(=O)c2c(ncn2C)n(C)c1=O [Caffeine]
[1]
  Cross Reactivity (%): <0.05%
[2]
  Cross Reactivity: <0.05%

## N[C@@H](Cc1c[nH]c2ccccc12)C(=O)O [L-Tryptophan]
[1]
  Cross Reactivity (%): <0.05%
[2]
  Cross Reactivity: <0.05%

## COc1ccc2[nH]cc(CCNC(C)=O)c2c1 [Melatonin, N-acetyl-5-methoxytryptamine]
[3]
  Decrease of Melatonin levels: ≥ 20%

## CC(=O)NCCc1c[nH]c2ccc(O)cc12 [N-acetyl serotonin]
[1]
  Cross Reactivity (%): <0.05%
[2]
  Cross Reactivity: <0.05%

## NCCc1c[nH]c2ccc(O)cc12 [Serotonin]
[1]
  Cross Reactivity (%): <0.05%
[2]
  Cross Reactivity: <0.05%
